Measurements: patent publication US11999737B2, “Kinase inhibitors and related methods of use” (Duke University, priority 2014, dated 2024)
Entries after “also recorded” stand apart in the source; their conditions may differ.

Assays:
Src = Src (Homo sapiens, UniProt P12931); assay: 33P-ATP filter-binding kinase assay (kinome profile); format: biochemical; conditions: 10 μM HS38
IRAK4 = molecular target: T1, IRAK4 (Homo sapiens, UniProt Q9NWZ3); assay: 33P-ATP filter-binding kinase assay
T1 sequence (Q9NWZ3 1-460): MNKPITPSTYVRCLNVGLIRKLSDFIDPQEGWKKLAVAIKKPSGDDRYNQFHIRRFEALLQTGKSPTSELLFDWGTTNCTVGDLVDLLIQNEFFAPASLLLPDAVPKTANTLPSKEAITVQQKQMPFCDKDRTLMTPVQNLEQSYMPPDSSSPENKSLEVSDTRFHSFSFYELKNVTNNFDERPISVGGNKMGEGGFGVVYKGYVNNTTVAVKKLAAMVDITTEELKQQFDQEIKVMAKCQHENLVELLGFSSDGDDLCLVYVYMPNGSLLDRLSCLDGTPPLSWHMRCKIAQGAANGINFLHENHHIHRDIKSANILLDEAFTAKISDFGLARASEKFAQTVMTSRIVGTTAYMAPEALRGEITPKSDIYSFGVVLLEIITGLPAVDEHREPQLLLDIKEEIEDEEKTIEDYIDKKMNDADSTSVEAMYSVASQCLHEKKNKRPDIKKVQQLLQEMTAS

[1] = tested on: spontaneous hypertensive rat (SHR); assay: HS-38 treatment of spontaneous hypertensive rats, vessel properties; format: in vivo
Description: The myogenic response and ZIP-dependency of pressure autoregulation were assessed. Two age groups, 8-10 weeks and 18-20 weeks, were used to permit identification of age-dependent alterations in myogenic responses associated with the onset of diabetes/hypertension and after the diseases had become fully established. Two rat models were used, spontaneous hypertensive rat(SHR) model, and Goto-Kakizaki (GK) rat model of type 2 diabetes (T2D). […] HS-38 treatment attenuated myogenic hypercontractility in the cremaster artery of spontaneously-hypertensive rats (SHR; FIG. 33; WKY=Wistar Kyoto rat, control).
No effect of HS38 was observed on the ratio of wall thickness/vessel diameter in the SHR mesenteric artery.

ROK2 = ROK2 (Rattus norvegicus, UniProt Q62868); assay: 33P-ATP filter-binding kinase assay
Sequence of ROK2 (Q62868 2-543): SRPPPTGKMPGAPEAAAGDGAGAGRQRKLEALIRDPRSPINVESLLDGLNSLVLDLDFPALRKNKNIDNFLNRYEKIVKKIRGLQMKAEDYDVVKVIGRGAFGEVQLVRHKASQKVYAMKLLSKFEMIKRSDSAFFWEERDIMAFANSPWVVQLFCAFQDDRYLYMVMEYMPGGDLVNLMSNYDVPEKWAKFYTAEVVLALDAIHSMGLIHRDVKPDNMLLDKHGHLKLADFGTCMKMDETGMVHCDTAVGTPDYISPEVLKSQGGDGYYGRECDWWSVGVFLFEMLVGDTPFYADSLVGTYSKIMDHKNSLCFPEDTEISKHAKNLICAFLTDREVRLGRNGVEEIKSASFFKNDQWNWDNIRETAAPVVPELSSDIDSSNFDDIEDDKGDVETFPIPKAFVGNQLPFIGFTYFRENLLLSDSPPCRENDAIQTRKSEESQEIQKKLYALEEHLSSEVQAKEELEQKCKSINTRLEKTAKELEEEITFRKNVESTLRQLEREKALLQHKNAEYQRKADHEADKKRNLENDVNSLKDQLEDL

rabbit ileum = assay: Carbachol-induced Ca2+-sensitized force in α-toxin permeabilized rabbit ileum; conditions: HS38 50 μM, at 20 min, pCa 6.5
Description: A. Typical force trace and graphical representation showing the effect of HS38 (50 μM) on carbachol-induced, Ca^2+ sensitized force in α-toxin permeabilized rabbit ileum. HS38 induced an approximate 30% decrease in the plateaued force at 20 min. (mean±S.E., n=7). B, Western blot analysis of RLC20 and MYPT1 Thr696 phosphorylation following treatment with HS38 (50 μM). […] C. Typical force trace showing the effect, of HS38 on Ca^2+-independent force production in rabbit ileum smooth muscle. […] E. Both the lag time to the onset of force (p <0.05, n=3) and the rate of force development (t1/2) (p <0.02, n=3) were increased following the addition of MC-LR in the presence of HS38 (mean±S.E., n=3).
Tissue Preparation and Force Measurements. […] Intact strips of mouse abdominal aorta were challenged with phenylephrine following pretreatment with HS38 or diluent, DMSO or HS38 and DMSO were added after maximal phenylephrine-induced force was achieved and force output measured. […] For Ca^2+ activating solutions, EGTA (10 mM) and a calculated amount of Ca-methanesulfonate was added to give the desired free Ca^2+ concentration ((Horiuti (1988) J. Physiol.-London 398, 131-148). […]

[2] = tested on: human cerebral arterioles; assay: Pressure myography of isolated human cerebral arterioles, myogenic tone; conditions: HS-38 10 μM, ex vivo
From the text: A human cerebral artery (CA) was harvested during a tumour removal. Cerebral tissue was obtained from a person with metastatic adenocarcinoma from lung. Surface vessels of the anterior cerebral artery off the midline over the left anterior frontal lobe were dissected for analysis. […] Pressure-induced changes in arteriolar diameter (A) as well as diameter-pressure relationships (B) and arterial constriction (C) are shown. Data are from n=1 vessel. The passive diameter at 120 mmHg was ˜290 μm. Vessels of similar diameter were isolated, proteins were extracted with SDS-PAGE buffer and immunoblotted (D) for ZIPK and α-actin as a loading control.
A human cerebral artery (CA) was harvested during a tumor removal. Cerebral tissue was obtained from a person with metastatic adenocarcinoma from lung. Surface vessels of the anterior cerebral artery off the midline over the left anterior frontal lobe were dissected for analysis. […]
Pressure-induced changes in arteriole diameter (A) as well as diameter-pressure relationships (B) and arterial constriction (C) are shown. […] Bands were quantified with a LAS4000 gel analyzer.
Tissues were obtained from patients undergoing resections for treatment for epilepsy or tumors. Surface vessels of ˜200 μm diameter were analyzed by pressure myography and western immunoblotting.

[3] = read-out: % Activity (10 μM HS38)

Sequence of Src (P12931 whole entry): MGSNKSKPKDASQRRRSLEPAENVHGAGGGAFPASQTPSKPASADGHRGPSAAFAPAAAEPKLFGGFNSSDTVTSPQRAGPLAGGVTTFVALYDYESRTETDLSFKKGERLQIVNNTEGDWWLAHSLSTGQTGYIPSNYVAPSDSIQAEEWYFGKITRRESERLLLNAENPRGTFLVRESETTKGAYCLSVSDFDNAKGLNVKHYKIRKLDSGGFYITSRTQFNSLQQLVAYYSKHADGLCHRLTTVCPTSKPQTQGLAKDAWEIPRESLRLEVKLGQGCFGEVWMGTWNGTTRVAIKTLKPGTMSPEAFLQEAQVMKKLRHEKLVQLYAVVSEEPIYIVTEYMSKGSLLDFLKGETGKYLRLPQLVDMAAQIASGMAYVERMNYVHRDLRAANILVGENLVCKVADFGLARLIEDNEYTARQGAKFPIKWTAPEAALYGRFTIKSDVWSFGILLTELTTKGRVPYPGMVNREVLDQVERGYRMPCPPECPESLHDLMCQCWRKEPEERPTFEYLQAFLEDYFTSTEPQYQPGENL

For `CC(Sc1nc2c(cnn2-c2cccc(Cl)c2)c(=O)[nH]1)C(N)=O` (stereo not drawn) [HS38], the inhibition at 10 µM (Src) was 0%, the “fold less potent than against DAPK1 and PIM3” value (IRAK4) was ~10 fold and the IC50 (IRAK4; mean ± S.D., n = 2) was 1400 ± 400 nM. The activity at 10 µM (IRAK4; [3]) was 20%, the circumferential strain ([1]; HS-38 treatment) was “increased” and the “vessel narrowing seen in hypertension” value ([1]; HS-38 treatment) was “partially reversed”. The “myogenic hypercontractility in the cremaster artery” value ([1]; HS-38 treatment, SHR) was “attenuated”, the “ratio of wall thickness/vessel diameter” value ([1]; SHR mesenteric artery) was “No effect” and the “activity against ROK2” value (ROK2) was “completely inactive”. For the same compound, the activity at 10 µM (ROK2; [3]) was 91%, the “decrease in plateaued carbachol-induced Ca2+-sensitized force” value (rabbit ileum) was ~30% and the myogenic tone development [2] was “appeared to attenuate; also recorded: suppressed”.
